Experimental data taken from patent publication US20250327028A1, “ENGINEERED PLATELETS AS TARGETED PROTEIN DEGRADERS” (Wisconsin Alumni Research Foundation, priority 2024, published 2025).

Tests used:
[1] = target: T1, PD-L1 (Mus musculus, UniProt Q9EP73); assay: Immunoblot analysis of PD-L1 expression in LRP-1-deficient PEA-10 cells; assay type: cell-based, murine; details: PEA-10 (LRP-1-deficient), various concentrations, 8 h, CM
T1 construct: endogenous in cells; host or cells: 4T1
Source text: (§1) Immunoblot analysis: Immunoblot analysis was used to evaluate the expression of BRD4, HSP90, HSP90a, and PD-L1 in 4T1, WT MDA-MB-231, HSP90α-KO MDA-MB-231 or PEA-10 cells after various treatments and also served as the detection method for IP or co-IP experiments. The procedures for preparing IP or co-IP samples were indicated in the relevant experimental parts.
(§2) Sample preparation for various cancer cells after free HAC treatment: Various cells, including 4T1, WT MDA-MB-231, HSP90α-KO MDA-MB-231, or PEA-10 cells, were seeded in 6-well culture plates with a density of 5×10^4 cells in each well and cultured for 24 h. Then, if HAI pretreatment was performed, the cells were incubated in the HAI-containing blank medium at different concentrations for 2 h and washed with PBS twice before the following treatments. […]
(§3) General procedures for immunoblot analysis: After a 30-min lysis, the lysates were centrifuged at 10,000 g for 10 minutes at 4° C., and the corresponding supernatants were collected, followed by quantification of the total proteins in the supernatant through the BCA assay. […] Finally, the bands were treated with electrochemiluminescence (ECL) western blot substrate, detected by the iBright™ imaging system and quantified with ImageJ software. […]

[2] = target: T2, PD-L1 (Homo sapiens, UniProt Q9NZQ7); assay: PD-L1 distribution in WT MDA-MB-231 cells (fluorescence observation); assay type: cell-based; details: 2 h, compared to PU-H71 plus BMS-1166
T2 construct: endogenous in cells; host or cells: HSP90α-KO MDA-MB-231
T2 sequence (Q9NZQ7 19-290): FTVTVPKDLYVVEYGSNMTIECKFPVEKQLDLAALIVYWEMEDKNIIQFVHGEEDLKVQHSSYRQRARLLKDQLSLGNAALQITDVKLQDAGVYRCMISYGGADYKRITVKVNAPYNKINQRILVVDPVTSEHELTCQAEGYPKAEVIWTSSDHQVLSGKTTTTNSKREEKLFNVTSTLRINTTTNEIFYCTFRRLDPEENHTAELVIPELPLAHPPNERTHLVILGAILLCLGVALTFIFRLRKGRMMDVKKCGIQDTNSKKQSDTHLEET
Protocol: PD-L1 distribution in WT MDA-MB-231 cells: 5×10^4 WT MDA-MB-231 cells were seeded in a confocal dish and cultured for 24 h at 37° C. Then, the cells were treated with eHAC or the combination of PU-H71 plus BMS-1166 at 0.5 μM for 2 h. Subsequently, the cells were washed with PBS twice and fixed with 4% PFA at room temperature for 20 min. The following procedures were the same as the above colocalization observation except for replacing the anti-LAMP1 antibody with rabbit anti-PD-L1 antibody (Invitrogen/PA5-20343).

[3] = test system: 4T1-Luc tumors; assay: Treatment efficacy in post-surgery BALB/c mice with orthotopic 4T1-Luc breast cancer; assay type: in vivo; details: 2×10^8 platelets i.v. or free HAC 5 mg/kg i.p., every third day for 4 times
Source text: Evaluation of treatment efficacy and biosafety in post-surgical 4T1 tumor-bearing mice: Post-surgery BALB/c mice with orthotopic 4T1-Luc-breast cancer were used to evaluate the tumor recurrence, metastasis, and biosafety profiles after iDePLT or eDePLT treatments. The treatment efficacy of iDePLT was also studied in the post-surgery NSG mice with orthotopic patient-derived xenografts (PDX) breast cancer.
Establishment of post-surgery models with BALB/c mice: 1×10^6 4T1-Luc cells were suspended in a PBS containing 50% Matrigel® (Corning®/354234). Female 8-week-old BALB/c mice were anesthetized and injected with 50 μL of the cell suspensions into the fourth mammary gland fat pads. After the tumor volumes reached about 100-200 mm^3, the tumor-bearing mice were anesthetized and placed under the microscope, followed by surgical resection to totally remove the visible tumor tissues. Following wound closure, the post-surgery mice were randomly assigned to different treatment groups.
Evaluation of treatment efficacy and biosafety in post-surgery BALB/c mice: As for the treatments with platelets, the platelets were freshly isolated from the healthy female BALB/c mice and suspended in PBS for intravenous (i.v.) injection after the necessary engineering. The free iHAC and eHAC were intraperitoneally (i.p.) injected after dispersing in the formulation of 10% DMSO, 40% polyethylene glycol 300 (PEG300), 5% Tween TM-80, and 45% saline. From the same day after surgery, the mice were anesthetized and i.p. injected with D-luciferin potassium salt (150 mg/kg) in 100 μL in PBS. The bioluminescence of post-surgery mice in each group was detected by Perkin Elmer IVIS every five days from the day of surgery, and intensity was analyzed by Living Image Software v.4.3.1. […] During the treatment course, the body weight of each post-surgery mouse was monitored daily. […]

[4] = test system: 4T1-Luc tumors; assay: Flow cytometry and ELISA of infiltrated effector T cells and cytokines within tumor tissues of post-surgery mice; assay type: in vivo, BALB/c mice; details: flow cytometry, two weeks after last treatment
Protocol: Flow cytometry analysis and ELISA assay were adopted to study the infiltrated effector T cells and immune-associated cytokines within the tumor tissues. The same post-surgery mouse models were established and randomly divided into 4 groups (n=5), which were i.v. injected with PBS, nPLT (2×10^8 platelets), eDePLT (2×10^8 platelets), and free eHAC (5 mg/kg) every three days for four times starting from day 1 post-surgery. After 2 weeks of the last treatment, the tumor tissues were isolated, weighed, and cut into small pieces, which were then soaked in 2 mL blank medium containing collagenase (MilliporeSigma/C5138) and incubated at 37° C. for 1 h. The cell suspensions were centrifugated at 1200 rpm for 3 min, and 200 μL of the corresponding supernatants were collected and subjected to ELISA analysis for IFN-γ and TNF-α. The single cell suspensions were collected through filtration of the suspension over 40 µm nylon cell strainer (Falcon®/352340). For the staining, 1×10^6 cells for each sample were collected and incubated with 100 μL of PBS containing PE anti-mouse CD3 antibody and APC anti-mouse CD8a antibody in the dark for 30 min at 4° C. Then, the samples were centrifuged at 2,000 rpm for 5 min at room temperature. The pellets were resuspended in PBS and subjected to the flow cytometry analysis.

[5] = target: T2, PD-L1; assay: PD-L1 degradation in HSP90α-KO MDA-MB-231 cells; assay type: cell-based
Source text: as §1, §2, §3

[6] = target: T1, PD-L1; assay: Immunoblot analysis of PD-L1 degradation in 4T1 cells after free HAC treatment; assay type: cell-based, murine
Source text: as §1
Sample preparation for various cancer cells after free HAC treatment: Various cells, including 4T1, WT MDA-MB-231, HSP90α-KO MDA-MB-231, or PEA-10 cells, were seeded in 6-well culture plates with a density of 5×10^4 cells in each well and cultured for 24 h. Then, if HAI pretreatment was performed, the cells were incubated in the HAI-containing blank medium at different concentrations for 2 h and washed with PBS twice before the following treatments. The medium in the corresponding wells was replaced with 1 mL of blank medium containing the DMSO vehicle, HACs, or the combinations of various free ligands at the predetermined concentrations. After incubation for the indicated time points, cells were washed with PBS and lysed on ice with the relevant lysis buffer containing PMSF (1 mM) and the phosphatase inhibitor cocktail for 30 min. As for the conditioned medium (CM), the culturing complete medium of the corresponding cancer cells in each well was collected after 24-h incubation and subjected to centrifugation at 2000 rpm for 5 min to obtain the supernatant. The filtrate of the supernatants was collected following filtration over a 0.45 μm filter, serving as the CM. Regarding the cell samples for BRD4 detection, the lysis buffer containing HEPES-KOH (pH=7.5, 10 mM), NaCl (500 mM), EDTA (5 mM), NP-40 (1%), and SDS (0.1%) was used with the indicated PMSF and phosphatase inhibitor cocktail. As for PD-L1 detection, RIPA buffer (Thermo Fisher Scientific/J63306.AP) was used with the indicated PMSF and phosphatase inhibitor cocktail.
as §3, with “assay. Afterward, the proteins in the supernatant were mixed with the loading buffer and heated at 95° C. for 15 min. Equal amounts of proteins from different samples ([…]) were loaded into the Bis-Tris gel formulated with Bis-Tis buffer, 30% acrylamide/Bis, 10% ammonium persulfate (APS) solution, and TEMED.” for “assay.”

T1 sequence (Q9EP73 19-290): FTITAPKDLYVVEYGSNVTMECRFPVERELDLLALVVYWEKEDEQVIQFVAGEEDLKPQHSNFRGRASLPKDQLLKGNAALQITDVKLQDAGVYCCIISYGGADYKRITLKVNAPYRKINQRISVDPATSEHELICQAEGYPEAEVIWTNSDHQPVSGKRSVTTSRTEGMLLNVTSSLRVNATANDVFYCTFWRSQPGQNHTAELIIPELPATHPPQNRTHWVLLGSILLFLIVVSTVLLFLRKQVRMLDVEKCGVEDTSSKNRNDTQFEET

Cc1c(COc2cc(OCc3cccc(C#N)c3)c(CN3C[C@H](O)C[C@@H]3C(=O)NCCOCc3cn(CCCC(=O)N(CC#N)S(=O)(=O)c4ccc(C(=O)NCCCn5c(Sc6cc7c(cc6I)OCO7)nc6c(N)ncnc65)cc4)nn3)cc2Cl)cccc1-c1ccc2c(c1)OCCO2 [eHAC, (2R,4R)—N-(2-((1-(4-((4-((3-(6-amino-8-((6-iodobenzo[d][1,3]dioxol-5-yl)thio)-9H-purin-9-yl)propyl)carbamoyl)-N-(cyanomethyl)phenyl)sulfonamido)-4-oxobutyl)-1H-1,2,3-triazol-4-yl)methoxy)ethyl)-1-(5-chloro-2-((3-cyanobenzyl)oxy)-4-((3-(2,3-dihydrobenzo[b][1,4]dioxin-6-yl)-2-methylbenzyl)oxy)benzyl)-4-hydroxypyrrolidine-2-carboxamide]
PD-L1 degradation [1]: failed to induce obvious PD-L1 degradation
PD-L1 distribution [2]: rapidly aggregated into punctate structures and moved towards cytosol
tumor recurrence at the surgical site (bioluminescence) [3]: same severe relapse
infiltration / ratio of CD3+CD8+ T cells in tumor tissues [4]: slightly elevated the ratio of CD3^+CD8^+ T cells
PD-L1 degradation potency [5]: considerably compromised
PD-L1 expression in presence of lysosome degradation inhibitor leupeptin ([6]; 4T1 cells, 5 μM, 8 h): rescue effect on PD-L1 expression
PD-L1 expression, eHAC dispersed in blank medium (BM) ([6]; 4T1 cells, blank medium): just slightly reduced the PD-L1 expression within 12 h
PD-L1 levels, eHAC suspended in conditioned medium (CM) ([6]; 4T1 cells, conditioned medium, same time points): could efficiently downregulate PD-L1 levels
time and concentration dependence of PD-L1 reduction ([6]; conditioned medium): in a time- and concentration-dependent manner
